Test results: patent US12139488B2, “Pyrido[3,2-d]pyrimidine compounds uses thereof for treating a proliferative disease” (Universite de Montreal, priority 2021, dated 2024)
Like-named read-outs stand apart in the source and are kept apart here.

What was measured:
Format in all cases: cell-based, human
[1] = system: pERK in SK-MEL30 cells (NRAS-Q61K); assay: Phospho-ERK inhibition (AlphaLISA), SK-MEL30; details: for SK-MEL30 pERK % Ymin: SK-MEL30, value in parentheses
Procedure: (§1) All cancer cell lines (A375, A101D, A2058, RKO, HT29 SK-MEL 30, IPC298, HepG2, HCT-116, Lovo, SWV620, SW480, NCI-H358, NCI-H2122, Calu-6, NCIH2087, NCIH1755, NCIH1666 and Mewo) were obtained from ATCC and cultured in RPMI-1640 medium (Gibco) supplemented with 5% heat inactivated fetal bovine serum (FBS, Wisent) at 37° C. under 5% CO2. Cells were maintained in T175 flasks (Greiner). They were passaged by removing the culture medium, washing once in 10 mL of room temperature Phosphate Buffered Saline (PBS; Wisent) and incubating at 37° C. with 2 mL of 0.05% Trypsin (Thermo-Fisher). Trypsin was then inactivated by adding complete growth medium and the cells were then replated in a T175 culture dish at the appropriate dilution. All cell lines were routinely tested for mycoplasma contamination. Tissue type and mutational status of each cell line can be found in Table B.
(§2) AlphaLISA® SureFire® Ultra™ p-ERK 1/2 (Thr202/Tyr204) analysis was conducted on cells plated in 100 μL of complete RPMI-1640 growth medium in 96-well flat-bottomed transparent dishes (Costar) at a density indicated in Table C. Cells were maintained overnight at 37° C. under 5% CO2 before treatment with compounds' dilution series for one hour. The cell density in cells/cm^2 corresponds to cell number divided by the area of one well of a 96-well plate ([…]).
(§3) In a dilution series 100 μL/well of test substance dilution prepared in complete RPMI-1640 growth media was added to the cells. The dilution series is selected so that ten concentrations cover a range from 10 μM to 0.33 nM. If necessary the initial concentration of 10 μM is increased to 100 μM or lowered to 1 μM (as in the case of A375 and H1666 cells, which are generally more sensitive to the compounds) and further dilution is carried out accordingly. The final concentration of DMSO in the assay is set at 0.5%.
(§4) After treatment, media was removed and cells were lysed in 50 μL of 1× AlphaScreen Ultra Lysis Buffer (Perkin Elmer). The AlphaLISA® SureFire® Ultra™ p-ERK 1/2 (Thr202/Tyr2O4) (PerkinElmer) reactions were performed with 5 μL of cell lysate according to the manufacturer's specifications in 384-well proxyplates (Perkin Elmer) followed by overnight incubation of the reactions at room temperature in a humidified chamber. After completion of the reactions, the signals were recorded on an EnVision plate reader (Perkin Elmer) using built in AlphaLISA® settings.
(§5) The effect of each compound dilution on the pERK signal was expressed in % inhibition and calculated as follows. An internal 100% inhibition control ([…] trametinib, cat #HY-10999; MedChem Express; CAS #871700-17-3) was included in each plate and used as a measure of pERK background. First, the value obtained for trametinib was subtracted from each data point. The average of DMSO (vehicle) controls (set as 0% inhibition) was established and used to calculate % inhibition: % inhibition=100*(1-((pERK signalcompound)/(pERK signalDMSO)))
(§6) The ability of each compound to inhibit pERK signal was expressed as an IC50 value obtained by plotting the inhibition values for each data point of a dilution series and fitting the obtained curves using a log(agonist) versus response-variable slope (four parameters) function using GraphPadPrism (V7.0) or Dotmatics Screening Ultra platform.
(§7) When present, paradoxical pERK induction is inferred from the negative % inhibition values observed in the pERK IC50 curves of a compound.

RKO cells (BRAF V600E) = assay: Proliferation inhibition (CellTiter-Glo), RKO; details: 3 days, read-out: RKO Prolif. EC50
Procedure: as §1
(§8) CellTiter-Glo® viability analysis was conducted on cells plated in 100 μL of complete RPMI-1640 growth medium in 96-well flat-bottomed white opaque plates (Greiner or Croning) at a density indicated in Table E (for each CCL, number of cells plated per well of a 96-well plate to perform the CellTiter-Glo® cell viability assay). The cell density in cells/cm^2 would correspond to cell number divided by the area of one well of a 96-well plate (0.32 cm^2). […]
(§9) After 3 days of incubation, the growth media were removed by aspiration and 60 μL of diluted CellTiter-Glo® reagent (10 μL CellTiter-Glo® reagent+50 μL of PBS) was added to each well. […] Luminescence signals were then acquired on a Synergy Neo2 plate reader (Biotek).
(§10) The effect of each compound dilution on the proliferation of cancer cell lines was expressed in % inhibition and calculated as follows. […]
as §6, with “proliferation” for “pERK signal”, “a EC50” for “an IC50”, “effect” for “inhibition”

[2] = system: pERK in HCT-116 cells (KRAS G13D); assay: Phospho-ERK inhibition (AlphaLISA SureFire Ultra p-ERK 1/2), HCT116; details: for HCT116 pERK % Ymin: value in parentheses
How it was run: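 Cells in RPMI-1640 with 5% FBS were plated overnight, then exposed for 1 h to ten-point dilutions (typically 10 μM to 0.33 nM; 0.5% DMSO). Lysates were read by AlphaLISA SureFire Ultra for p-ERK1/2 Thr202/Tyr204; % inhibition used trametinib background and DMSO controls, with IC50 from four-parameter fits.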

[3] = system: pERK in Mewo cells (NF1 LOF); assay: Phospho-ERK inhibition (AlphaLISA), Mewo; details: for Mewo pERK % Ymin: value in parentheses
Procedure: as §1, §2, §3, §4, §5, §6, §7

Mewo cells (NF1 LOF) = assay: Proliferation inhibition (CellTiter-Glo), Mewo; details: 3 days, read-out: Mewo Prolif. EC50
Procedure: as §1, §8, §9, §10
as §6, with “proliferation” for “pERK signal”, “a EC50” for “an IC50”, “effect” for “inhibition”

[4] = system: pERK in NCI-H358 cells (KRAS-G12C); assay: Phospho-ERK inhibition (AlphaLISA), NCI-H358; details: for IC50: NCI-H358; for NCI-H358 pERK % Ymin: NCI-H358, value in parentheses
Procedure: as §1, §2, §3, §4, §5, §6, §7

Row | IC50 ([1]; Homo sapiens, SK-MEL-30) | IC50 ([2]; Homo sapiens, HCT-116, HCT116, Table D) | IC50 ([3]; Homo sapiens, MeWo) | IC50 ([4]; Homo sapiens) | IC50 ([1]; SK-MEL30) | IC50 ([2]; HCT116, Table D) | IC50 ([2]; HCT116 cells, class symbol before the bracket) | YMIN of pERK IC50 dose response curve (paradoxical induction of pERK signaling) ([2]; RAS-mutant HCT116 cells, FIG. 1) | IC50 ([3]; Mewo) | IC50 [4] | IC50 ([2]; HCT116 cells, class symbol) | SMILES | SK-MEL30 pERK % Ymin [1] | EC50 (RKO cells (BRAF V600E); Homo sapiens, 72 h) | HCT116 pERK % Ymin ([2]; HCT116, Table D) | Mewo pERK % Ymin ([3]; Mewo) | EC50 (Mewo cells (NF1 LOF); Homo sapiens, 72 h) | NCI-H358 pERK % Ymin [4] | EC50 (RKO cells (BRAF V600E)) | HCT116 pERK Ymin % ([2]; HCT116 cells, Ymin in brackets) | EC50 (Mewo cells (NF1 LOF))
1 | < 0.03 µM | 0.03 to 0.3 µM | 0.03 to 0.3 µM | 0.03 to 0.3 µM | – | – | – | – | – | – | – | Cc1ccc2c(Nc3cccc(Cl)c3F)nccc2c1NC(=O)c1csc2c(N)ncnc12 [Belvarafenib, reference compound] | −45% | < 0.03 µM | −46% | −116% | 0.3 to 3 µM | −122% | – | – | –
2 | – | – | – | – | < 0.03 µM | 0.03 to 0.3 µM | < 0.5 µM | > −20% | 0.03 to 0.3 µM | 0.03 to 0.3 µM | – | Nc1cccc2c1ncn2-c1ccc2ncnc(Nc3c(F)ccc(NS(=O)(=O)c4cccc(Cl)c4Cl)c3F)c2n1 [Example 99] | −1% | – | −0.3% | −7% | – | 11% | < 0.03 µM | −5.4% | < 0.03 µM
3 | – | – | – | – | < 0.03 µM | 0.03 to 0.3 µM | – | – | 0.03 to 0.3 µM | 0.03 to 0.3 µM | < 0.5 µM | CC1(O)CCN(c2cccc3c2ncn3-c2ccc3ncnc(Nc4c(F)ccc(NS(=O)(=O)c5cccc(Cl)c5Cl)c4F)c3n2)CC1 [Example 524] | −13% | – | −3% | −5% | – | −13% | < 0.03 µM | – | < 0.03 µM
